Tests used:
[1] = tested on: rat sciatic nerve; experiment: Rat sciatic nerve crush injury model; format: in vivo; details: 21 days
Procedure: Stimulated by these observations, we next tested 1938 in the sciatic nerve crush model in the rat, an in vivo model of peripheral nerve injury and regeneration. […] Immediately after the nerve crush (FIG. 5e, i-ii), 1938 was delivered via a single intraneural injection into the proximal crush site (FIG. 5e, iii) and via a minipump implanted adjacent to the nerve (FIG. 5e, iv), loaded with 1938 solution, for continuous delivery for the duration of the experiment. Analyses were conducted 3 weeks after injury.
Adult female Sprague Dawley rats (230-280 g, n=10, Charles River, UK) were anaesthetised by isoflurane inhalation in an induction chamber (5% isoflurane in O2, 0.8 l/min). Anaesthesia was maintained with 1.5-2.5% isoflurane inhalation, and the left sciatic nerve exposed at mid-thigh level.
The nerve was crushed by application of constant pressure using fully closed sterile type 4 tweezers (TAAB) for 15 sec. This was repeated two more times at the same point, with 45° rotation between each crush. The injury site was marked with a 10/0 epineurial non-absorbant suture (Ethicon). Following injury, frozen aliquots of 1938 solution and vehicle were defrosted. A single 2 μl injection of 1938 solution (5 μM in sterile H2O) or vehicle (sterile dH2O) was administered proximal to the crush site with a 10 μl Hamilton syringe. An osmotic minipump (Alzet 1004, Charles River, UK) was also implanted between the muscle layers, adjacent to the nerve oriented with the outlet nearest to the crush site, loaded with 1938 solution (100 μM in sterile H2O) or vehicle (sterile H2O). Animals were randomly assigned to groups (n=5 per group) and one experimenter was kept blind to condition for conducting functional and histological analyses. […]
At the end-point of the experiment (21 days), rats were anaesthetised and the sciatic nerve exposed as described above. […] The MI was manufactured using a previously documented protocol (Lancashire, H. T. et al. J Neural Eng 13, 034001 (2016). Electrode impedance of the MNI was 27.1±19.8 kΩ at 1k Hz. Compound muscle action potential (CMAP) was obtained by sciatic nerve stimulation with square wave pulses of 100 μsec with intensity from 1-10 mA. Stimulus was increased in 0.2 mA steps until muscle response amplitude no longer increased. CMAP amplitude was measured from peak to peak and recorded in triplicate for both the ipsilateral and contralateral side. The CMAP with the largest amplitude was selected for analysis.
A modified multipoint stimulation technique was used to calculate Motor Unit Number Estimation (MUNE) (Shefner, J. M. et al. Muscle & nerve 34, 603-607 (2006); Jacobsen, A. B. et al. J Vis Exp (2018); Arnold, W. D. et al. J Vis Exp (2015)). […] The CMAP was divided by the mean magnitude of SMUPs to quantify MUNE. […]

[2] = tested on: pAKT^S473 in mouse embryonic fibroblasts (MEFs); experiment: pAKT S473 by Wes western blotting in MEFs; format: cell-based
Text: The inventors next monitored the activation of AKT, the best-known PI3K effector stimulated by PIP3/PI(3,4)P2 production in cells. […] As previously reported, PI3Kα-null MEFs still respond to insulin, but now in a PI3Kβ-dependent manner, as shown by sensitivity of insulin-stimulated pAKT^S473 to the PI3Kβ-selective inhibitor TGX-221 (FIG. 3b). […] Similar observations were made for mTORC1 pathway activation, as measured by S6 (Ser240/44) and 4EBP1 (Ser65) phosphorylation (FIG. 3e). […] Experiments with A549 cells and MEFs were performed separately using slightly different protocols. Briefly, A549 cells were seeded at 200,000 cells per well in 24-well plates in DMEM (10% FBS+1% P/S) and allowed to adhere overnight. The next day, cells were washed once with PBS before addition of serum-free DMEM for 24 h. On the day of treatment, cells were incubated in fresh serum-free DMEM prior to treatment. […]

CCN1CCN(c2ccc(Nc3cc(Nc4cccc5c4N(C(C)=O)CC5)ccn3)cc2)CC1 [Example 1938]
neurofilament- and ChAT-positive axons, treatment versus control ([1]; 3 mm and 6 mm distal to the crush site): equivalent numbers
number of ChAT-positive motor axons ([1]; distal common peroneal nerve): an increase
compound muscle action potential (CMAP) recovery ([1]; tibialis anterior muscle): greater
motor unit number estimation (MUNE) ([1]; tibialis anterior muscle): increased
EC50 ([2]; Mus musculus, Fibroblast, 0.25 h, read-out: EC50 for induction of pAKT, MEFs, 15 min treatment): 2 to 4 µM
pAKT^S473 in PI3Kα-null MEFs ([2]; PI3Kα-null MEFs, 15 min): no pAKT^S473 phosphorylation was observed
